Where a name gives a salt, the structure may show the parent alone.
Key:
[1] = Relative thermodynamic stability of polymorphic forms; type: physicochemical; details: polymorph comparison, succinate salt
[2] = Solid-form transformation upon drying; type: physicochemical; details: transient solvate form in suspension during the crystallization of Form A

Row | SMILES | thermodynamic stability relative to Form A [1] | form stability / transformation upon drying [2]
1 | CCCN(CCC)C(=O)COC(=O)CCNS(=O)(=O)c1cccc(C(=O)N2CCC3(CC2)CN/C(=N\C(=O)c2nc(Cl)c(N)nc2N)N3)c1 [Form C, 3-(3-{2-[(E)-3,5-Diamino-6-chloro-pyrazine-2-carbonylimino]-1,3,8-triaza-spiro[4.5]decane-8-carbonyl}-benzenesulfonylamino)-propionic acid dipropylcarbamoylmethyl ester succinate salt] | thermodynamically more stable than Form A | 
2 | CCCN(CCC)C(=O)COC(=O)CCNS(=O)(=O)c1cccc(C(=O)N2CCC3(CC2)CN/C(=N\C(=O)c2nc(Cl)c(N)nc2N)N3)c1 [Form B, 3-(3-{2-[(E)-3,5-Diamino-6-chloro-pyrazine-2-carbonylimino]-1,3,8-triaza-spiro[4.5]decane-8-carbonyl}-benzenesulfonylamino)-propionic acid dipropylcarbamoylmethyl ester succinate salt] |  | transforms into Form A upon drying

Reference: US8809340B2, “Crystalline form” (Novartis AG, priority 2012, dated 2014)
